Test results reported in PubChem BioAssay (NCI).
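Dose response: 5 concentrations. Exposure: 48 h. Format: 96-well plates. Endpoint: linear interpolation; highest concentration if not reached. The concentration for full growth arrest is given as TGI.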

Key:
Assay in all cases: DTP human tumour cell line panel, 48 h
[1] = test system: NCI-H226 lung
[2] = test system: UO-31 renal
[3] = test system: COLO 205 colon
[4] = test system: NCI-H460 lung
[5] = test system: M19-MEL melanoma
[6] = test system: SNB-75 CNS
[7] = test system: SK-OV-3 ovarian
[8] = test system: CAKI-1 renal
[9] = test system: IGROV1 ovarian
[10] = test system: CCRF-CEM leukemia
[11] = test system: HOP-62 NSCLC
[12] = test system: XF 498 CNS
[13] = test system: K-562 leukemia
[14] = test system: SK-MEL-28 melanoma
[15] = test system: SF-268 CNS
[16] = test system: DMS 273 small cell lung
[17] = test system: 786-0 renal
[18] = test system: NCI-H522 lung
[19] = test system: A498 renal
[20] = test system: HOP-92 NSCLC
[21] = test system: HCT-116 colon
[22] = test system: DLD-1 colon
[23] = test system: OVCAR-4 ovarian
[24] = test system: RXF-631 renal
[25] = test system: HL-60(TB) leukemia
[26] = test system: SR leukemia
[27] = test system: LXFL 529 NSCLC
[28] = test system: SNB-78 CNS
[29] = test system: SN12C renal
[30] = test system: DMS 114 small cell lung
[31] = test system: HCC-2998 colon
[32] = test system: SK-MEL-2 melanoma
[33] = test system: MALME-3M melanoma
[34] = test system: SF-539 CNS
[35] = test system: M14 melanoma
[36] = test system: UACC-62 melanoma
[37] = test system: NCI-H23 lung
[38] = test system: OVCAR-8 ovarian
[39] = test system: U251 CNS
[40] = test system: HCT-15 colon
[41] = test system: SF-295 CNS
[42] = test system: SW-620 colon
[43] = test system: OVCAR-5 ovarian
[44] = test system: KM20L2 colon
[45] = test system: ACHN renal
[46] = test system: SNB-19 CNS
[47] = test system: EKVX NSCLC
[48] = test system: MOLT-4 leukemia
[49] = test system: SK-MEL-5 melanoma
[50] = test system: HOP-18 NSCLC
[51] = test system: UACC-257 melanoma
[52] = test system: RPMI-8226 leukemia
[53] = test system: LOX IMVI melanoma
[54] = test system: A549 NSCLC
[55] = test system: KM12 colon
[56] = test system: OVCAR-3 ovarian
[57] = test system: TK-10 renal
[58] = test system: HT29 colon

COc1cc([C@H]2Oc3c(c(O)cc4oc(-c5ccccc5)cc(=O)c34)O[C@@H]2CO)ccc1O
TGI [1]: > 100 µM
TGI [2]: > 100 µM
TGI [3]: > 100 µM
TGI [4]: 32.5 µM
TGI [5]: > 100 µM
TGI [6]: > 100 µM
TGI [7]: > 100 µM
TGI [8]: > 100 µM
TGI [9]: > 100 µM
TGI [10]: 23.7 µM
TGI [11]: > 100 µM
TGI [12]: > 100 µM
TGI [13]: > 100 µM
TGI [14]: > 100 µM
TGI [15]: > 100 µM
TGI [16]: 25 µM
TGI [17]: > 100 µM
TGI [18]: > 100 µM
TGI [19]: > 100 µM
TGI [20]: 87.6 µM
TGI [21]: > 100 µM
TGI [22]: 56.4 µM
TGI [23]: > 100 µM
TGI [24]: 62.7 µM
TGI [25]: 36.2 µM
TGI [26]: 36.7 µM
TGI [27]: > 100 µM
TGI [28]: > 100 µM
TGI [29]: > 100 µM
TGI [30]: > 100 µM
TGI [31]: > 100 µM
TGI [32]: 57.6 µM
TGI [33]: 83.4 µM
TGI [34]: > 100 µM
TGI [35]: 38.5 µM
TGI [36]: > 100 µM
TGI [37]: > 100 µM

CC1=C2C(c3ccccc3)(c3ccccc3)C3C=CC2(C=N3)N(C(=O)NC2CCCCC2)C1=O (stereo unspecified)
TGI [2]: 27.3 µM
TGI [38]: 33.6 µM
TGI [3]: 29.3 µM
TGI [7]: 44.3 µM
TGI [39]: 30.6 µM
TGI [8]: 26.1 µM
TGI [9]: 35.7 µM
TGI [10]: 36.1 µM
TGI [40]: 30.4 µM
TGI [11]: 31.7 µM
TGI [41]: 31.2 µM
TGI [42]: 31.9 µM
TGI [43]: 31.5 µM
TGI [13]: 34.6 µM
TGI [44]: 30.6 µM
TGI [14]: 30.6 µM
TGI [15]: 34.7 µM
TGI [45]: 33.8 µM
TGI [16]: 33.2 µM
TGI [17]: 29.4 µM
TGI [19]: 31.6 µM
TGI [20]: 27.4 µM
TGI [21]: 29.4 µM
TGI [46]: 32.9 µM
TGI [47]: 28.7 µM
TGI [48]: 35.8 µM
TGI [49]: 30.5 µM
TGI [23]: 31.5 µM
TGI [50]: 34.3 µM
TGI [24]: 26.2 µM
TGI [25]: 30.2 µM
TGI [26]: 37.7 µM
TGI [51]: 30.9 µM
TGI [27]: 30.1 µM
TGI [52]: 37.8 µM
TGI [53]: 29.5 µM
TGI [54]: 32.8 µM
TGI [55]: 32.1 µM
TGI [28]: 31.9 µM
TGI [29]: 31.7 µM
TGI [30]: 32.5 µM
TGI [31]: 32.4 µM
TGI [56]: 28.2 µM
TGI [33]: 31.6 µM
TGI [34]: 30.7 µM
TGI [35]: 31.2 µM
TGI [36]: 33.4 µM
TGI [37]: 32.5 µM

COc1cc(Br)c(CC2=NCCc3cc(OC)c(OC)cc32)cc1OC
TGI [1]: > 100 µM
TGI [2]: 95.1 µM
TGI [38]: > 100 µM
TGI [57]: > 100 µM
TGI [3]: > 100 µM
TGI [4]: > 100 µM
TGI [5]: > 100 µM
TGI [6]: > 100 µM
TGI [7]: > 100 µM
TGI [39]: > 100 µM
TGI [8]: > 100 µM
TGI [9]: > 100 µM
TGI [10]: > 100 µM
TGI [40]: > 100 µM
TGI [11]: > 100 µM
TGI [41]: > 100 µM
TGI [42]: > 100 µM
TGI [43]: > 100 µM
TGI [13]: > 100 µM
TGI [44]: > 100 µM
TGI [14]: > 100 µM
TGI [15]: > 100 µM
TGI [45]: > 100 µM
TGI [16]: 51.3 µM
TGI [17]: > 100 µM
TGI [18]: 65.2 µM
TGI [19]: 76.3 µM
TGI [20]: 60.3 µM
TGI [21]: > 100 µM
TGI [46]: > 100 µM
TGI [47]: > 100 µM
TGI [22]: > 100 µM
TGI [48]: 72.5 µM
TGI [49]: 36 µM
TGI [23]: > 100 µM
TGI [50]: > 100 µM
TGI [24]: > 100 µM
TGI [25]: 38 µM
TGI [26]: > 100 µM
TGI [51]: 70.6 µM
TGI [27]: > 100 µM
TGI [52]: 73 µM
TGI [53]: > 100 µM
TGI [54]: > 100 µM
TGI [55]: > 100 µM
TGI [29]: > 100 µM
TGI [58]: > 100 µM
TGI [30]: 68.1 µM
TGI [31]: 43.4 µM
TGI [56]: > 100 µM
TGI [32]: > 100 µM
TGI [33]: > 100 µM
TGI [34]: 87 µM
TGI [35]: 65.8 µM
TGI [36]: > 100 µM
TGI [37]: > 100 µM

O=C1C2=C(c3ccccc31)C(c1ccccc1Cl)N1C(=O)CSC1=N2 (stereo unspecified)
TGI [1]: > 100 µM
TGI [2]: > 100 µM
TGI [38]: > 100 µM
TGI [57]: > 100 µM
TGI [3]: > 100 µM
TGI [4]: > 100 µM
TGI [5]: > 100 µM
TGI [6]: > 100 µM
TGI [7]: > 100 µM
TGI [39]: > 100 µM
TGI [8]: > 100 µM
TGI [9]: > 100 µM
TGI [10]: > 100 µM
TGI [40]: > 100 µM
TGI [11]: > 100 µM
TGI [12]: > 100 µM
TGI [41]: > 100 µM
TGI [42]: > 100 µM
TGI [43]: > 100 µM
TGI [13]: > 100 µM
TGI [44]: > 100 µM
TGI [14]: > 100 µM
TGI [15]: > 100 µM
TGI [45]: > 100 µM
TGI [16]: > 100 µM
TGI [17]: > 100 µM
TGI [18]: 88.7 µM
TGI [19]: > 100 µM
TGI [20]: > 100 µM
TGI [21]: > 100 µM
TGI [46]: > 100 µM
TGI [47]: > 100 µM
TGI [22]: > 100 µM
TGI [48]: > 100 µM
TGI [49]: > 100 µM
TGI [23]: > 100 µM
TGI [24]: > 100 µM
TGI [25]: > 100 µM
TGI [51]: > 100 µM
TGI [27]: > 100 µM
TGI [52]: > 100 µM
TGI [53]: > 100 µM
TGI [54]: > 100 µM
TGI [55]: > 100 µM
TGI [29]: > 100 µM
TGI [58]: > 100 µM
TGI [30]: > 100 µM
TGI [31]: > 100 µM
TGI [56]: > 100 µM
TGI [32]: > 100 µM
TGI [33]: > 100 µM
TGI [34]: > 100 µM
TGI [35]: > 100 µM
TGI [36]: > 100 µM
TGI [37]: > 100 µM
